These results are taken from article PMC5791972 (PLoS ONE, 2018).

Where “and” joins values, the source holds several entries; their conditions need not be identical. Identical values can stand only once. Starred links: 1 amine or outer side, 2 acyl side, 3 side chain; linkers in the order of their positions; H or OH if unused. Positions of bridges follow the written chain, without caps; N, C: chain ends. Residues, ends and D or L forms follow the SMILES beside them. X1 = O=C(CC1(S[*:2])CCCCC1)[*:1]

Among the targets are GABAB(1b) (h) (Homo sapiens, UniProt Q9UBS5); PDE5 (h) (non-selective) (Homo sapiens, UniProt O76074); D2S (h) (Homo sapiens, UniProt P14416).
For the next assay, the target named is MMP-9 (h) (Homo sapiens, UniProt P14780). Nature of the assay: biochemical. The class given is biochemical.
MMP-9 (h), sequence (P14780 94-707): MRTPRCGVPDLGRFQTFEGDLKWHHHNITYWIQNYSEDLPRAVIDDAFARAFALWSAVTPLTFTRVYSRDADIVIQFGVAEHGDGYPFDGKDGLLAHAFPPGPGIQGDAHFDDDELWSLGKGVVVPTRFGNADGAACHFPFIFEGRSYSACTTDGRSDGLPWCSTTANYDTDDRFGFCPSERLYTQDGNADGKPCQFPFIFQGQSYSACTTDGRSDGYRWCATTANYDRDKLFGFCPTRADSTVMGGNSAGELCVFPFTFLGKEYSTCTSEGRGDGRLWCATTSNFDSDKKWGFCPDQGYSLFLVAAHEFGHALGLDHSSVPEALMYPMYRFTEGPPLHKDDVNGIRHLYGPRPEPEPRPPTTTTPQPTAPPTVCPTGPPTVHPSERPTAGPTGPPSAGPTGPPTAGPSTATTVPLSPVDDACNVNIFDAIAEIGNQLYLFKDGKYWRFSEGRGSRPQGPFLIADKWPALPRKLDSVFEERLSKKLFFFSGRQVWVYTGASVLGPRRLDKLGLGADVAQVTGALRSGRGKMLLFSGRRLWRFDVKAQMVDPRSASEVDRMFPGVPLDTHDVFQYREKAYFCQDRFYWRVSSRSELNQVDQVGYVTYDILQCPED
For the next assay, the target named is T1, 5-HT3 (h) (Homo sapiens, UniProt P46098).
T1 sequence (P46098 24-478): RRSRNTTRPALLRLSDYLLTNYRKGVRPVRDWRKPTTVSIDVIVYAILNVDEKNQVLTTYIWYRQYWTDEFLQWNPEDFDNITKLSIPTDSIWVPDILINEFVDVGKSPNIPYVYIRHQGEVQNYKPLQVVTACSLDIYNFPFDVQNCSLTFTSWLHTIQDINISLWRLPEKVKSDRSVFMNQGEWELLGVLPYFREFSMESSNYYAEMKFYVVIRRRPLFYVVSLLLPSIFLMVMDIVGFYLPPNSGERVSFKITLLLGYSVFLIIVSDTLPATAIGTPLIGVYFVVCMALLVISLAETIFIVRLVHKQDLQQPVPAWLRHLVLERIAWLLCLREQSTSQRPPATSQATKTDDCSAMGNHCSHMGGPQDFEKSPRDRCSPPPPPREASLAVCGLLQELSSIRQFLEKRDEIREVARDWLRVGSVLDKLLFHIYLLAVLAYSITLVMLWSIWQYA

A further assay relates to NMRI mice. Nature of the assay: Locomotor activity. Conditions: 5 mg/kg subcutaneously. The class given is in vivo, mouse. The method, then:
NMRI mice were habituated to their room for at least 2 weeks after the delivery and kept under standard conditions in groups of 4–5 animals per cage. Food and water were available ad libitum.
Spontaneous motility and rearing were measured by an automated system (Coulbourn Instruments, USA). Animals were introduced into transparent square cages (40 cm length) that are equipped with 2 light barrier systems in order to monitor the movements as well as rearing behavior automatically. The movements of the animals were recorded for 30 minutes. At the end of the experiment, the animals were sacrificed via isofluorane inhalation and subsequent decapitation.

A further assay addresses p38α kinase (h) (Homo sapiens, UniProt Q16539). As to the kind of experiment: enzyme assay. Format: biochemical.
In the next assay the target is T2, V1a (h) (Homo sapiens, UniProt P37288).
T2 construct: host or cells: CHO cells
The class given is binding.

The target of assay [1] is Ca2+ channel (L, diltiazem site) (benzothiazepines) (Rattus norvegicus, UniProt P22002). The class given is binding.
The target in a further assay is T3, 5-HT transporter (h) (Homo sapiens, UniProt P31645).
T3 construct: host or cells: CHO cells
Format: binding.

For the next assay, the system named is CD-1 mice. As to the kind of experiment: Forced swim test. The note with it: 20 mg/kg IP, 45 min prior, CD-1 mice.
The next assay concerns the target T4, 5-HT2A (h) (Homo sapiens, UniProt P28223).
T4 construct: host or cells: HEK-293 cells
The class given is binding.

Another assay has as its target T5, MT1 (ML1A) (h) (Homo sapiens, UniProt P48039).
T5 construct: host or cells: CHO cells
Format: binding.

In the next assay the target is T6, MT3 (ML2) (Mesocricetus auratus, UniProt A0ABM2YAB8).
T6 construct: tissue Cerep; host or cells: hamster brain
T6 sequence (A0ABM2YAB8 1-231): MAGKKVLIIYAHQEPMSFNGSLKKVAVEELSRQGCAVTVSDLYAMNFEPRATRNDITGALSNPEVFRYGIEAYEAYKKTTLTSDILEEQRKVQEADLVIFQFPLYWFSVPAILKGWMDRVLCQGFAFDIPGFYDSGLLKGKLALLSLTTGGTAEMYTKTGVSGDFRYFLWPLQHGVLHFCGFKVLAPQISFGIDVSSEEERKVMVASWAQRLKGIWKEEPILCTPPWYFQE
Format: binding, hamster.

In another assay the target is T7, M2 (h) (Homo sapiens, UniProt P08172).
T7 sequence (P08172 1-466): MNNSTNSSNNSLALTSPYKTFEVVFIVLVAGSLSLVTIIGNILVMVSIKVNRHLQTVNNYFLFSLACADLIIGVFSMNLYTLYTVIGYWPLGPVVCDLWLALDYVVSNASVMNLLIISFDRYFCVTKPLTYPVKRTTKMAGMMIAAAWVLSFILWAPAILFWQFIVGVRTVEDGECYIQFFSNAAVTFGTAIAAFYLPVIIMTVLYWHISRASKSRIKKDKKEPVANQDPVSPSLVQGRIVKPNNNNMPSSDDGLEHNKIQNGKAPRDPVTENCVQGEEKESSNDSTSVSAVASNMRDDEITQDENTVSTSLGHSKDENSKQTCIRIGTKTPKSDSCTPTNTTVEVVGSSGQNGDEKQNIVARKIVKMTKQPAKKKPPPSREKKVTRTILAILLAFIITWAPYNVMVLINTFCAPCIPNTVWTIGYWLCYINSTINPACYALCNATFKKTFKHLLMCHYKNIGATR

The next assay concerns the target PDE3A (h) (Homo sapiens, UniProt Q14432). As to the kind of experiment: biochemical.
Another assay has as its target ATPase (Na+/K+). As to the kind of experiment: enzyme assay. Format: biochemical, porcine.
The next assay addresses T8, ZAP70 kinase (h) (Homo sapiens, UniProt P43403).
T8 construct: host or cells: insect cells
T8 sequence (P43403 1-619): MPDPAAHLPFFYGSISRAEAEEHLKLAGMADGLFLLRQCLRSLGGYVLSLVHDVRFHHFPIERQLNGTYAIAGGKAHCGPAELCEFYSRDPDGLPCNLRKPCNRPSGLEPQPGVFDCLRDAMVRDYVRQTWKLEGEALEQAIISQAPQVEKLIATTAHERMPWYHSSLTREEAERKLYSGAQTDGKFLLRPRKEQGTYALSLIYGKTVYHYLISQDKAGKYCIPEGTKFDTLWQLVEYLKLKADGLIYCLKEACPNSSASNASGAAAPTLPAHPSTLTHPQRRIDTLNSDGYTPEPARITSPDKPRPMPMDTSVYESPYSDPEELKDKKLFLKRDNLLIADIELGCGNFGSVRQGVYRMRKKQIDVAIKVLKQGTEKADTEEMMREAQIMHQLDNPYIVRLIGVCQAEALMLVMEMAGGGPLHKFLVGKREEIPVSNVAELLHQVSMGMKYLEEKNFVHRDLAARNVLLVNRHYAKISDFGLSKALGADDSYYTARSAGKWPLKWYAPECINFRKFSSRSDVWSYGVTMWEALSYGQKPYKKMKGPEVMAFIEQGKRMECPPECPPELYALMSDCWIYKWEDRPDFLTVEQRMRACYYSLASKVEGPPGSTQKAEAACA
As to the kind of experiment: biochemical.

Assay [2] addresses T9, FLT-1 kinase (h) (VEGFR1) (Homo sapiens, UniProt P17948).
T9 construct: host or cells: Sf9 cells
Nature of the assay: enzyme assay. The class given is biochemical.

The next assay has as its target Ca2+ channel (N) (Rattus norvegicus, UniProt Q02294). As to the kind of experiment: biochemical. Format: binding.

GABAB(1b) (h), sequence (Q9UBS5 1-844 isoform Q9UBS5-2): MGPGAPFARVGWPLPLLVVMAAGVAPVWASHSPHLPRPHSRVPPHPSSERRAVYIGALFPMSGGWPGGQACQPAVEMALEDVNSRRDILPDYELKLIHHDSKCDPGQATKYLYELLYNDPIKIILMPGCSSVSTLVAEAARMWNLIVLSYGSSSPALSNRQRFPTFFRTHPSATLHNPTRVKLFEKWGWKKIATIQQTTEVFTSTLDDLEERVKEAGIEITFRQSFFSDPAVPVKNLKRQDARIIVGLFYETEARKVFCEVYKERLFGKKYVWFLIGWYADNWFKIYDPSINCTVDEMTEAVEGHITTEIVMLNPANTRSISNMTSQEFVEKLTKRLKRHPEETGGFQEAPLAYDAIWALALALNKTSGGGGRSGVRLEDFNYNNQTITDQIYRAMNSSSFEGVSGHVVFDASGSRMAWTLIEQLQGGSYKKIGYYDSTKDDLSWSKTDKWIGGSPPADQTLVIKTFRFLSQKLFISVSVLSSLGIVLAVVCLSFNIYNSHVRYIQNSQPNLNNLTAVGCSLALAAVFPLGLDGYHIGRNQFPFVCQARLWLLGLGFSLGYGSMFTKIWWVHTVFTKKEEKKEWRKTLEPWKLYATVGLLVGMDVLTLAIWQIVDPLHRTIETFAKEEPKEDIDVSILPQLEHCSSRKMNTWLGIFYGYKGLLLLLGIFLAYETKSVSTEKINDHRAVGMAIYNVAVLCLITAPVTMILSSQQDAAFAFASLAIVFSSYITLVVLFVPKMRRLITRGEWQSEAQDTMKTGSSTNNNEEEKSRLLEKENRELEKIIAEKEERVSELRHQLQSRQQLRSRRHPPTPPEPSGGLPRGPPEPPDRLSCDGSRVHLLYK
GABAB(1b) (h), sequence (O75899 42-941 partner): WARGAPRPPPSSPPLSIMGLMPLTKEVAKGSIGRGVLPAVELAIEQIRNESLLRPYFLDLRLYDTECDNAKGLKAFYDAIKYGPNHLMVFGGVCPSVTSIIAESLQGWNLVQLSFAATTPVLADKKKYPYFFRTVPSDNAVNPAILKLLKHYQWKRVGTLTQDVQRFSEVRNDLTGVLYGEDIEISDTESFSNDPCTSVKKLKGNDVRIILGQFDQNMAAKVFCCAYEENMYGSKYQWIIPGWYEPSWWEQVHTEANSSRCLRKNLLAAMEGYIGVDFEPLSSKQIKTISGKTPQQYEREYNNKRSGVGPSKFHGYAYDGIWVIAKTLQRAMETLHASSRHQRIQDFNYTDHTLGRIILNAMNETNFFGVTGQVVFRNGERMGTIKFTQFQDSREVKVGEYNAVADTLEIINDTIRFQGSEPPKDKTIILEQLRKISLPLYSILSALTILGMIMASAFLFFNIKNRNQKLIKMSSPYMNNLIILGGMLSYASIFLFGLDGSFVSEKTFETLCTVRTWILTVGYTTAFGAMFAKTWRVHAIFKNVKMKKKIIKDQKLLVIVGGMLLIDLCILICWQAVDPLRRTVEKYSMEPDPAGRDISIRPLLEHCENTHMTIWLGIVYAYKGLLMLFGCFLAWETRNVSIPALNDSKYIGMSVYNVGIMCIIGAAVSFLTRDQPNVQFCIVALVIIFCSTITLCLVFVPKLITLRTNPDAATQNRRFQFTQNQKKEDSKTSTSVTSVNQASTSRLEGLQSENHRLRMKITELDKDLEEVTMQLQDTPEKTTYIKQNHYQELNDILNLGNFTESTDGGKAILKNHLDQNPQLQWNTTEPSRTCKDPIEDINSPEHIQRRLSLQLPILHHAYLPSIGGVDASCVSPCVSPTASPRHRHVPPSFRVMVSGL
T9 sequence (P17948 27-1338): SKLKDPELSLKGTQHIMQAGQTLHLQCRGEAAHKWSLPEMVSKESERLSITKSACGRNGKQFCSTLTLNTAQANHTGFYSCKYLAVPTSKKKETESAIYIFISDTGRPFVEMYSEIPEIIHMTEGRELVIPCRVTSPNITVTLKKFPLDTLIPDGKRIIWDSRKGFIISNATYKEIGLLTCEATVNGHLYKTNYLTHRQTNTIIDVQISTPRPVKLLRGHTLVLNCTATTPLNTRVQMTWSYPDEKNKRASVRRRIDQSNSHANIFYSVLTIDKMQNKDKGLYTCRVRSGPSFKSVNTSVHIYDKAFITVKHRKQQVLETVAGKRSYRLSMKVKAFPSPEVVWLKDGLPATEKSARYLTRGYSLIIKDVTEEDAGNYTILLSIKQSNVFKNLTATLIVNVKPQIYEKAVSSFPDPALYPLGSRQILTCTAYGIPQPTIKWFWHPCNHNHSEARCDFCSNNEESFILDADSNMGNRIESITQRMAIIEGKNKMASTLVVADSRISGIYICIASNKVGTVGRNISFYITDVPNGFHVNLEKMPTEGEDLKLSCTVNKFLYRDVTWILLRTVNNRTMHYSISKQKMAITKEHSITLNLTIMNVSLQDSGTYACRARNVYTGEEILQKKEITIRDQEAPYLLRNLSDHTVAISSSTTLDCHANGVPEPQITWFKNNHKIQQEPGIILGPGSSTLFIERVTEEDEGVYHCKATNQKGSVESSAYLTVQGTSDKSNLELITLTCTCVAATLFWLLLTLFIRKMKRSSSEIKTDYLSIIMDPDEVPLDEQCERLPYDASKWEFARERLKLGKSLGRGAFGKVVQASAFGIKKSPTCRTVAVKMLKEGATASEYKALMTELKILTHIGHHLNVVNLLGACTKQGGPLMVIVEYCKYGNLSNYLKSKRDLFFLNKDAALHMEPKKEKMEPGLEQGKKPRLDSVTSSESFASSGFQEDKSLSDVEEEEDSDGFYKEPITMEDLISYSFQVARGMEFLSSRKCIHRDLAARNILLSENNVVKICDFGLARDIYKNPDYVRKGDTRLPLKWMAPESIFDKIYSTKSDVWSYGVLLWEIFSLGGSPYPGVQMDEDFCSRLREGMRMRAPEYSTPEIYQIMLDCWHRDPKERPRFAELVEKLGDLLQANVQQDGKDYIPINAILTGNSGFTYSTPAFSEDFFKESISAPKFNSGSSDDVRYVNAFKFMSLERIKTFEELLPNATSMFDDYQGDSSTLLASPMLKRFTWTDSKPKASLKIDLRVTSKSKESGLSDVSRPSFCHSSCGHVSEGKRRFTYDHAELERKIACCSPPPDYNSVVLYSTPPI
PDE3A (h), sequence (Q14432 whole entry): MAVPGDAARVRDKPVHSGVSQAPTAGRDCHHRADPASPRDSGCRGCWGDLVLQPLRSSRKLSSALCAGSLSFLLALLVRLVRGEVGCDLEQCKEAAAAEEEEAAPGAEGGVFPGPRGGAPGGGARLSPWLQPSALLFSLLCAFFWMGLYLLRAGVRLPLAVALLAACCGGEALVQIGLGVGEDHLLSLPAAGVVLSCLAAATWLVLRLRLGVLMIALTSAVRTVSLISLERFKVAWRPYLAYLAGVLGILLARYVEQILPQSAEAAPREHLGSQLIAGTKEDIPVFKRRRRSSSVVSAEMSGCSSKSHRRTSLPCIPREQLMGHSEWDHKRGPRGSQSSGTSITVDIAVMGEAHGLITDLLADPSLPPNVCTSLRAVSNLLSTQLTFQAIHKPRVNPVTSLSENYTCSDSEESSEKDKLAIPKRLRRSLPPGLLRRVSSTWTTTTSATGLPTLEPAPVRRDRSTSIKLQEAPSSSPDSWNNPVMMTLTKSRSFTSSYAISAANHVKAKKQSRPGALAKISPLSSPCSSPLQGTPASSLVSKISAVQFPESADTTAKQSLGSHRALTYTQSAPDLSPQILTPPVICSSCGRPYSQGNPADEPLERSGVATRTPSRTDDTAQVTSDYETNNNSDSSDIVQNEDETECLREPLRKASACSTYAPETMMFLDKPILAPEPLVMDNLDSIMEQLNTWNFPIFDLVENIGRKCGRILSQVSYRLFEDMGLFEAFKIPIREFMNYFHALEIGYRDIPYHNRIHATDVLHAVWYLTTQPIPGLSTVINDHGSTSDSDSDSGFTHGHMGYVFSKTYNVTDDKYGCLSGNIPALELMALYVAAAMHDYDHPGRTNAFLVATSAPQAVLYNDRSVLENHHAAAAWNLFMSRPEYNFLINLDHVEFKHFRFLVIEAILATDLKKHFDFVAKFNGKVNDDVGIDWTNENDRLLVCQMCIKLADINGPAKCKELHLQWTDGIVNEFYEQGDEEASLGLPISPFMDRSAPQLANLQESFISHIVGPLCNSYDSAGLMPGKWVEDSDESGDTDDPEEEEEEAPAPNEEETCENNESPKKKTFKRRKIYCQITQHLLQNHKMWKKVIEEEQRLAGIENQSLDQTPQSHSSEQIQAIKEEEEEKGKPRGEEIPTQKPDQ

For `C[C@H](NC[C@H](O)CP(=O)(O)CC1CCCCC1)c1ccc(Cl)c(Cl)c1` [CGP 54626], the nH at GABAB(1b) (h) was 0.9.

On MMP-9 (h), `CNC(=O)[C@H](Cc1c[nH]c2ccccc12)NC(=O)[C@@H](CC(=O)NO)CC(C)C` [GM6001, reference compound] showed a nH of 1.6.

Turning to `CN1[C@@H]2CC[C@H]1C[C@@H](OC(=O)c1cc(Cl)cc(Cl)c1)C2` [MDL 72222], the nH on 5-HT3 (h) was determined as 1.1.

As for `c1ccc(C2(N3CCCCC3)CCCCC2)cc1` [PCP, Phencyclidine, reference compound], the locomotor activity result in the assay with NMRI mice is on record as “substantially increased activity”.

On p38α kinase (h), `Oc1ccc(-c2nc(-c3ccncc3)c(-c3ccc(F)cc3)[nH]2)cc1` [SB202190, reference compound] showed a nH of 1.4.

Take `COc1ccc(C[C@@H]2NC(=O)CC3(CCCCC3)SSC[C@@H](C(=O)N3CCC[C@H]3C(=O)N[C@@H](CCCNC(=N)N)C(=O)NCC(N)=O)NC(=O)[C@H](CC(N)=O)NC(=O)[C@H](CCC(N)=O)NC(=O)[C@H](Cc3ccccc3)NC2=O)cc1` [[d(CH2)51,Tyr(Me)2]-AVP, reference compound] (Y(Me)FQNCPRG-NH2; linker N-5 via X1 (inferred)): the nH at V1a (h) is 0.9.

`COc1ccc([C@@H]2Sc3ccccc3N(CCN(C)C)C(=O)[C@@H]2OC(C)=O)cc1` [diltiazem, reference compound] yielded a nH in assay [1] of 1.2.

Regarding `OCCN(CCO)c1nc(N2CCCCC2)c2nc(N(CCO)CCO)nc(N3CCCCC3)c2n1` [dipyridamole], the nH on PDE5 (h) (non-selective) is 1.7 and 1.0.

The molecule `CN(C)CCCN1c2ccccc2CCc2ccccc21` [imipramine, reference compound] showed a nH on 5-HT transporter (h) of 0.9. Moreover, the immobility time result with CD-1 mice is on record as “decreased immobility time”.

The molecule `O=C(c1ccc(F)cc1)C1CCN(CCn2c(=O)[nH]c3ccccc3c2=O)CC1` [ketanserin, reference compound] yielded a nH on 5-HT2A (h) of 1.4.

What is called IC50 is the midpoint of a concentration-inhibition curve. The term Ki denotes a measure of affinity in units of concentration, obtained from inhibition or displacement. Lower therefore signals tighter binding. The molecule `COc1ccc2[nH]cc(CCNC(C)=O)c2c1` [melatonin, reference compound] showed a nH at MT1 (ML1A) (h) of 1.0. Besides, at MT3 (ML2), the half-inhibitory concentration (IC50) is 38 nM and 260 nM; the Ki was 37 nM and 250 nM.

Take `COc1ccccc1CNCCCCCCNCCCCCCCCNCCCCCCNCc1ccccc1OC` [methoctramine]: on M2 (h), the nH is recorded as 0.9.

Regarding `Cc1[nH]c(=O)c(C#N)cc1-c1ccncc1` [milrinone, reference compound], the nH on PDE3A (h) was determined as 1.0.

On to `C[C@@H]1O[C@@H](O[C@H]2C[C@@H](O)[C@]3(CO)[C@H]4[C@H](O)C[C@]5(C)[C@@H](C6=CC(=O)OC6)CC[C@]5(O)[C@@H]4CC[C@]3(O)C2)[C@H](O)[C@H](O)[C@H]1O` [ouabain, reference compound], for which, at ATPase (Na+/K+), half-maximal inhibition (IC50) required 1200 nM.

For `CN[C@@H]1C[C@H]2O[C@@](C)([C@@H]1OC)n1c3ccccc3c3c4c(c5c6ccccc6n2c5c31)C(=O)NC4` [staurosporine, reference compound], the nH was 1.2 at ZAP70 kinase (h) and 1.4 in assay [2].

`C[C@@H](O)[C@@H]1NC(=O)[C@H](Cc2ccc(O)cc2)NC(=O)[C@@H]2C[C@@H](O)CN2C(=O)[C@H](CC(N)=O)NC(=O)[C@@H]2CSSC[C@@H]3NC(=O)[C@H](CO)NC(=O)[C@H](CO)NC(=O)CNC(=O)[C@@H]4C[C@@H](O)CN4C(=O)[C@H](CO)NC(=O)[C@H](CCCCN)NC(=O)[C@@H](N)CSSC[C@H](NC(=O)[C@H](CSSC[C@@H](C(=O)N[C@@H](Cc4ccc(O)cc4)C(N)=O)NC(=O)[C@H](CCCN=C(N)N)NC(=O)[C@H](CCCCN)NC1=O)NC(=O)[C@H](CC(N)=O)NC(=O)[C@H](Cc1ccc(O)cc1)NC(=O)[C@H](CO)NC(=O)[C@H]([C@@H](C)O)NC(=O)[C@@H]1C[C@@H](O)CN1C(=O)[C@H](CO)NC3=O)C(=O)N[C@@H](CCCN=C(N)N)C(=O)N[C@@H](CO)C(=O)N2` [ω-conotoxin GVIA, reference compound] gave an IC50 at Ca2+ channel (N) of 0.0012 nM.

For the molecule (+)butaclamol, the nH at D2S (h) was 1.1.
